Key:
[1] = system: NLRP3 inflammasome in macrophage-derived THP-1 cells; assay: NLRP3 inflammasome / TLR4 activation in THP-1 macrophages (WB, ELISA); type: cell-based; details: 100 µM, 24 h
[2] = system: cGAS-STING pathway in macrophage-derived THP-1 cells; assay: cGAS-STING pathway in THP-1 macrophages (WB); type: cell-based; details: 100 µM, 24 h; cGAMP 4 µg/mL 6 h
human Keap1 Kelch = human Keap1 Kelch (Homo sapiens, UniProt Q14145); assay: Fluorescence polarization (FP) competition assay with Cy5-Nrf2 peptide probe
human Keap1 Kelch, sequence (Q14145 321-609): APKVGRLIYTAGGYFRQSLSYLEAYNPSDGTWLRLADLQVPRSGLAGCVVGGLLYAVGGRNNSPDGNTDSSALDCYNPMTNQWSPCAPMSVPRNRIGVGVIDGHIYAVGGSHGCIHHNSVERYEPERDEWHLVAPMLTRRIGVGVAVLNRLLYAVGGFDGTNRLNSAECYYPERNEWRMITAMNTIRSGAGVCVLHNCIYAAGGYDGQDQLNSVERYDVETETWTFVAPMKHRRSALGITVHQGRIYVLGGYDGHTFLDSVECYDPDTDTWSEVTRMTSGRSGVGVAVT

[3] = system: Nrf2-regulated genes (AKR1B10, NQO1, TRXR1, HO-1) in HaCaT human keratinocytes; assay: HaCaT cell assay, Western Blotting of Nrf2-regulated proteins; type: cell-based; details: 24 h
[4] = system: Nrf2-regulated genes (AKR1B10, NQO1, TRXR1, HO-1) in HaCaT human keratinocytes; assay: HaCaT cell assay, RT-qPCR of Nrf2-regulated genes; type: cell-based; details: WT HaCaT, 3, 1 and 0.33 µM, 5 h, normalized to TBP
[5] = system: IFN signalling in macrophage-derived THP-1 cells; assay: Type I IFN signalling after IFNβ stimulation in THP-1 macrophages (WB); type: cell-based; details: 100 µM, 24 h; IFNβ 500 U/mL 1 h
[6] = system: NQO1 mRNA in BEAS-2B cells; assay: qPCR-based BEAS-2B cell assay (NQO1 mRNA); parameters: species or system human; details: mean ± SEM, 2-4 independent experiments
Experimental: RT-qPCR were stimulated with compounds or DMSO diluted in DMEM and incubated for 24 h. DMSO was added accordingly to highest percentage compound volume added.
Upon 24 hour compound stimulation, the cells were trypsinized, washed, spun down and resuspended in 70 μL of ice-cold Pierce RIPA lysis buffer (Thermo Scientific) supplemented with 10 mM NaF, 1× complete protease cocktail inhibitor (Roche), and 5 IU mL-1 benzonase (Sigma), respectively. The protein concentrations were determined using the BCA protein assay kit (Thermo Scientific) and samples was equalized accordingly to the sample of lowest protein concentration. 1×XT sample buffer (Bio-Rad) and 1×XT reducing agent (Bio-Rad) were added to the samples, and lysates were denatured by boiling for 5 min at 95 °C. Denatured samples was separated by SDS-PAGE on a 4–20% Criterion TGX precast gradient gel (Bio-Rad). The gel ran initially for 20 min at 70 V and 45 min at 120 V and was then transferred onto a PVDF membrane (Bio-Rad) using a Trans-Blot Turbo transfer system. […]
Upon 5 hour compound stimulation, RNA was extracted from the cells using the High Pure RNA Isolation Kit (Roche, 11828665001) according to the manufacturer’s instructions. […] The quality and purity of the RNAs were assessed by Nanodrop spectrometry (DeNovix DS-11). Using the TaqMan detection systems, the gene expression of HO-1 (HMOX-1), NQO1, AKR1B10, and TRXR1 was determined by real-time PCR. […] The commercially available TaqMan assay (Thermo Fischer Scientific, cat. no. 4392938) was used, and samples were analyzed in a final volume of 10 μL reaction mix containing 5 μL of master mix, 0.2 μL of RT enzyme, 2.3 μL of nuclease-free water, […] (TATA-Box Binding Protein/TBP; […]
Hs00917067_m1, Thermo Fisher), and 2 μL of pure RNA. The samples were analyzed using a QuantStudioTM 3 real-time PCR instrument with the following program: 1 × (10 min, 48.0 °C; 10 min, 95.0 °C); 40 × (30 s, 95.0 °C; 1 min, 60.0 °C). […]
The upregulation of NQO1 mRNA in BEAS-2B cells was measured by qPCR, as previously described.[20] […]

THP1 cells = type: cell-based; details: THP-1 WT, 10 and 100 µM, 48 h
[7] = system: differentiated THP1 macrophages (WT)
[8] = system: Nrf2 KO THP1 cells differentiated into macrophages; assay: RNA sequencing transcriptome analysis, Nrf2 KO THP-1 macrophages; type: cell-based; details: 12 h, CDDO-Me 0.1 µM, DMF, 24, 28 10 µM, KI-696 1 µM
[9] = LPS or LPS+nigericin stimulation
[10] = WT, 12 h, CDDO-Me 0.1 µM, SFN, DMF, 24, 28 10 µM, KI-696 1 µM
[11] = WT, 12 h, CDDO-Me 0.1 µM, SFN, DMF, 24, 28 10 µM, KI-696 1 µM, NS = not significant

Ki (human Keap1 Kelch; Ki (FP), mean, ≥3 individual measurements, text and figures): 8.8 nM
ligand efficiency (LE) (human Keap1 Kelch; from FP Ki): 0.29
CYP1B1 FC ([7]; Table S3, THP-1, 12 h): 1,04 fold
SMILES: Cc1cc2c(cc1C(CC(=O)O)c1ccc3ccc(OCC(=O)NC4CCCCCC4)cc3c1)OCCO2 (stereo not shown) [Compound 28]
NLRP3 inflammasome activation: release of cleaved caspase-1 and cleaved IL-1β in supernatants (WB) [1]: markedly decreased NLRP3 inflammasome activation
cleavage of gasdermin D (GSDMD) (WB) [1]: prevented the cleavage of gasdermin D
IL-1β release (ELISA) following NLRP3 activation ([1]; LPS 100 ng/mL 3 h + nigericin 10 µM 1 h): confirmed a decrease
IL-1β release (ELISA) following high concentrations of LPS ([1]; LPS 2 µg/mL 6 h): no statistical difference was observed
expression of NLRP3 (WB) [1, 9]: markedly reduced
total protein levels of pro-IL-1β (WB) [1, 9]: also reduced
ISG15 levels (WB) [2]: reduced levels
total STING levels and STING activation (phosphorylated STING and TBK1) (WB) [2]: reduced total STING levels and STING activation
protein levels of Nrf2-regulated genes by WB ([3]; HaCaT, 10 µM): strong bands in WB for all tested proteins
relative cell potency among the six compounds (WB) ([3]; HaCaT, 10, 3, 1 µM): most potent
target gene mRNA expression (RT-qPCR) [4]: several‐fold increases in target gene mRNA expression
IFN signalling (phosphorylated STAT1, IFIT1 protein levels) (WB) [5]: did not affect IFN signalling
EC50 ([6]; Homo sapiens, BEAS-2B): 60.1 ± 5.7 nM
EC50 [6]: 60 nM
cell viability (THP1 cells): did not reduce cell viability
AKR1B10 FC ([7]; Table S3, THP-1, 12 h): 4,27 fold
CASP1 FC ([7]; Table S3, THP-1, 12 h): 0,59 fold
COL1A1 FC ([7]; Table S3, THP-1, 12 h): 1,40 fold
COL4A1 FC ([7]; Table S3, THP-1, 12 h): 1,15 fold
COL4A2 FC ([7]; Table S3, THP-1, 12 h): 1,11 fold
GPX1 FC ([7]; Table S3, THP-1, 12 h): 0,62 fold
GPX4 FC ([7]; Table S3, THP-1, 12 h): 1,20 fold
IFNAR1 FC ([7]; Table S3, THP-1, 12 h): 0,92 fold
IFNAR2 FC ([7]; Table S3, THP-1, 12 h): 0,99 fold
IFNGR1 FC ([7]; Table S3, THP-1, 12 h): 0,64 fold
IFNGR2 FC ([7]; Table S3, THP-1, 12 h): 0,76 fold
IL1B FC ([7]; Table S3, THP-1, 12 h): 0,88 fold
IRF3 FC ([7]; Table S3, THP-1, 12 h): 1,03 fold
LAMB1 FC ([7]; Table S3, THP-1, 12 h): 4,94 fold
LAMB4 FC ([7]; Table S3, THP-1, 12 h): 3,01 fold
MMP8 FC ([7]; Table S3, THP-1, 12 h): 0,94 fold
MMP9 FC ([7]; Table S3, THP-1, 12 h): 1,03 fold
MMP12 FC ([7]; Table S3, THP-1, 12 h): 0,53 fold
NLRP3 FC ([7]; Table S3, THP-1, 12 h): 0,79 fold
NOD2 FC ([7]; Table S3, THP-1, 12 h): 0,38 fold
NOXA1 FC ([7]; Table S3, THP-1, 12 h): 0,50 fold
SOCS1 FC ([7]; Table S3, THP-1, 12 h): 1,95 fold
SOCS3 FC ([7]; Table S3, THP-1, 12 h): 2,13 fold
SOD1 FC ([7]; Table S3, THP-1, 12 h): 1,35 fold
SOD2 FC ([7]; Table S3, THP-1, 12 h): 0,68 fold
STAT1 FC ([7]; Table S3, THP-1, 12 h): 0,77 fold
TBK1 FC ([7]; Table S3, THP-1, 12 h): 1,01 fold
TLR4 FC ([7]; Table S3, THP-1, 12 h): 1,04 fold
TNFRSF1B FC ([7]; Table S3, THP-1, 12 h): 1,14 fold
TRAP1 FC ([7]; Table S3, THP-1, 12 h): 0,86 fold
cGAS FC ([7]; Table S3, THP-1, 12 h): 1,29 fold
Average FC of upregulated Nrf2-dependent genes [7, 10]: 2.5 fold
number of upregulated genes (FC >2.0, p-adj <0.05) [7, 10]: 175 genes
GCLM fold change vs vehicle [7, 11]: 3.0 fold
GSR fold change vs vehicle [7, 11]: 2.0 fold
HMOX1 fold change vs vehicle [7, 11]: 2.4 fold
SRXN1 fold change vs vehicle [7, 11]: 2.4 fold
TXNRD1 fold change vs vehicle [7, 11]: 2.9 fold
NQO1 upregulation at 24 h ([7]; WT, 24 h, 10 µM (footnote * of Figure 7c)): 1.5 fold
number of up- or downregulated genes in Nrf2 KO cells [8]: 266 genes

Source: article PMC12455397 (Angewandte Chemie (International Ed. in English), 2025)
